Measurements reported in the supplement of paper PMC10307832.

What was measured:
Experiment in all cases: relative viability (nuclei count vs DMSO), 5 days (fraction); higher = more cells survive
[1] = compound: O[C@@H](COc1cccc2ncccc12)CN1CCN([C@@H]2c3ccccc3[C@@H]3[C@H](c4ccccc42)C3(F)F)CC1 [Zosuquidar] + Nc1nc2[nH]cc(CCc3ccc(C(=O)N[C@@H](CCC(=O)O)C(=O)O)cc3)c2c(=O)[nH]1 [Pemetrexed] (partner 0.2 µM)
In short: (§1)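 Relative viability is defined as nuclei in treated wells over nuclei in vehicle wells. Duplicate plates were run and medians reported. Lung cancer cell lines in 1536-well plates were dosed by pin tool one day after seeding, with one drug or with a fixed anchor-drug dose plus five library-drug doses (not always all listed) in √10 steps, and nuclei were counted after 5 days.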

[2] = compound: COc1cc2nccc(Oc3ccc(NC(=O)C4(C(=O)Nc5ccc(F)cc5)CC4)cc3)c2cc1OC [Cabozantinib] + CC(C)C[C@H](NC(=O)[C@H](Cc1ccccc1)NC(=O)c1cnccn1)B(O)O [Bortezomib] (partner 0.002 µM)
In short: as §1

[3] = compound: O[C@@H](COc1cccc2ncccc12)CN1CCN([C@@H]2c3ccccc3[C@@H]3[C@H](c4ccccc42)C3(F)F)CC1 [Zosuquidar] + CC1(C)CCC(c2ccc(Cl)cc2)=C(CN2CCN(c3ccc(C(=O)NS(=O)(=O)c4ccc(N[C@H](CCN5CCOCC5)CSc5ccccc5)c(S(=O)(=O)C(F)(F)F)c4)cc3)CC2)C1 [Navitoclax] (partner 0.5 µM)
In short: as §1

[4] = compound: COc1cc2nccc(Oc3ccc(NC(=O)C4(C(=O)Nc5ccc(F)cc5)CC4)cc3)c2cc1OC [Cabozantinib] + Cc1cc(Nc2cc(N3CCN(C)CC3)nc(Sc3ccc(NC(=O)C4CC4)cc3)n2)n[nH]1 [Tozasertib] (partner 0.1 µM)
In short: as §1

Cell Line | relative viability ([1]; first compound 0.01 µM) | relative viability ([1]; first compound 0.1 µM) | relative viability ([1]; first compound 0.3162 µM) | relative viability ([1]; first compound 1 µM) | relative viability ([2]; first compound 0.06325 µM) | relative viability ([2]; first compound 0.2 µM) | relative viability ([2]; first compound 0.6325 µM) | relative viability ([2]; first compound 2 µM) | relative viability ([3]; first compound 0.01 µM) | relative viability ([3]; first compound 0.03162 µM) | relative viability ([3]; first compound 0.1 µM) | relative viability ([3]; first compound 0.3162 µM) | relative viability ([3]; first compound 1 µM) | relative viability ([4]; first compound 0.06325 µM) | relative viability ([4]; first compound 0.2 µM) | relative viability ([4]; first compound 0.6325 µM) | relative viability ([4]; first compound 2 µM) | relative viability ([1]; first compound 0.03162 µM) | relative viability ([2]; first compound 0.02 µM) | relative viability ([4]; first compound 0.02 µM)
NCI-H23 | 0.601 | 0.612 | 0.843 | 0.657 | 1.31 | 0.996 | 0.959 | 0.945 | 0.765 | 0.96 | 0.746 | 0.79 | 0.862 | 0.47 | 0.387 | 0.325 | 0.292 | – | – | –
SW 1573 | 0.781 | 0.952 | 0.941 | 0.786 | 1.05 | 1.09 | 0.951 | 0.875 | 0.974 | 0.896 | 1.07 | 1.05 | 1.02 | 0.146 | 0.18 | 0.148 | 0.177 | 0.751 | 1.23 | 0.149
LU99A | 0.168 | 0.155 | 0.165 | 0.171 | 1.16 | 1.17 | 0.986 | 1.06 | 0.783 | 0.819 | 0.79 | 0.91 | 0.73 | 0.245 | 0.258 | 0.255 | 0.224 | 0.175 | 1.13 | 0.27
SK-LU-1 | 0.975 | 1.06 | 1.03 | 0.962 | 1.78 | 1.39 | 0.905 | 1.1 | 0.82 | 0.789 | 1.44 | 0.974 | 0.586 | 0.371 | 0.378 | 0.342 | 0.299 | 0.795 | 1.06 | 0.414
NCI-H2126 | 0.677 | 0.51 | 0.697 | 0.737 | 1.11 | 1.1 | 1.14 | 1.11 | 0.79 | 0.845 | 0.741 | 0.889 | 0.845 | 0.937 | 0.816 | 0.814 | 0.848 | 0.625 | 1.13 | 0.865
LXF-289 | 0.892 | 0.908 | 0.895 | 0.908 | 1.03 | 1.01 | 0.956 | 1 | 0.934 | 0.957 | 0.911 | 0.952 | 1.02 | 0.198 | 0.171 | 0.218 | 0.208 | 0.905 | 1.09 | 0.206
BEN | 0.75 | 0.476 | 1.05 | 0.684 | 1.08 | 0.902 | 0.639 | 0.795 | 0.523 | 0.0629 | 0.0532 | 0.0672 | 0.0608 | 0.474 | 0.507 | 0.56 | 0.461 | 0.738 | 0.679 | 0.512
LCLC-97TM1 | 0.192 | – | 0.158 | 0.183 | 1.02 | 0.653 | 0.967 | 0.96 | 0.448 | 0.396 | – | 0.496 | 0.412 | 0.27 | 0.252 | 0.217 | 0.282 | 0.191 | – | 0.288
NCI-H1993 | 0.578 | – | 0.642 | 0.636 | 1.2 | 0.716 | 0.816 | 0.988 | 0.966 | 0.978 | 0.896 | 1.1 | 0.802 | 0.625 | 0.565 | 0.572 | 0.542 | 0.624 | 0.829 | 0.546
NCI-H596 | 0.456 | 0.51 | 0.507 | 0.544 | 1.07 | 1.02 | 0.802 | 0.996 | 1.04 | 1.05 | 0.861 | 0.982 | 0.972 | 0.8 | 0.924 | 0.905 | 0.767 | 0.482 | 0.966 | 0.95
HCC-78 | 0.92 | – | 0.906 | 0.827 | 0.436 | 0.339 | 0.227 | 0.21 | 1.04 | 0.768 | – | 0.839 | 0.736 | 0.414 | 0.445 | 0.367 | 0.311 | – | 0.409 | –
NCI-H1975 | 0.279 | 0.293 | 0.272 | 0.29 | 0.403 | 0.357 | 0.402 | 0.389 | 1.13 | 1.14 | 1.17 | 1.14 | 0.993 | 0.78 | 0.699 | 0.435 | 0.295 | 0.299 | 0.409 | 0.761
